Experimental data from article PMC8830069, “Metallo-β-Lactamase Inhibitor Phosphonamidate Monoesters” (ACS Omega, 2022).

What was measured:
VIM-2 = VIM-2 (Escherichia coli, UniProt Q5U7L7); assay: MBL inhibition assay, purified VIM-2, nitrocefin hydrolysis at 482 nm; type: biochemical; conditions: for IC50 against purified VIM-2: nitrocefin reporter substrate, 100 pM enzyme, 2.5% DMSO, highest inhibitor concentration 800 μM, N.I. and P. not defined
Method: (§1) The inhibitory activities of 1a–h and 2 against the purified NDM-1, GIM-1, and VIM-2 enzymes were evaluated (IC50 data in Table 1). The inhibitory activity was measured by monitoring nitrocefin hydrolysis for VIM-2 and GIM-1 and that of imipenem for NDM-1[19] at λ 482 and 300 nm, respectively. […] This may indicate that unlike the sulfur of captopril, that of 1a and 2 might not coordinate the zinc ions in the active site. Alternatively, this may be a result of disulfide formation under the conditions of the enzyme assay. The hydrophobic 1f–h precipitated during the enzyme assay and their inhibitory activities could therefore not be reliably measured. This is not unusual as the binding cleft of MBL inhibitors is hydrophobic, and accordingly, their inhibitors typically have poor aqueous solubility.[20] The inhibitors may be solubilized by careful dilution of dimethylsulfoxide (DMSO) stock solutions; however, this was not successful for compounds 1f–h.
(§2) The inhibitory activity (IC50) of 1a–h was studied against the MBL enzymes NDM-1, GIM-1, and VIM-2. The buffer used for the studies contained 50 mM HEPES at pH 7.2, 10 μM ZnSO4, 2.5% DMSO, and 0.4 mg/mL bovine serum albumin, used as a prevention of protein unfolding and loss of activity. The enzyme concentration of NDM-1 was 10 nM, of GIM-1 1 nM, and of VIM-2 100 pM. The inhibitors were dissolved in 100% DMSO, and a twofold dilution series was made with a final 2.5% DMSO in the assay. The highest inhibitor concentration was 800 μM. The reporter substrate for VIM-2 and GIM-1 was nitrocefin, while for NDM-1 imipenem, and their absorbance (concentration) was followed at the wavelengths 482 and 300 nm, respectively. L-Captopril and EDTA-Na were used as positive and water and DMSO as negative controls. Measurements were read for 30 min at 298 K.

GIM-1 = GIM-1 (Pseudomonas aeruginosa, UniProt Q704V1); assay: MBL inhibition assay, purified GIM-1, nitrocefin hydrolysis at 482 nm; type: biochemical; conditions: for IC50 against purified GIM-1: nitrocefin reporter substrate, 1 nM enzyme, 2.5% DMSO, highest inhibitor concentration 800 μM, N.I. and P. not defined
Chain of GIM-1 (Q704V1 entry or part of it): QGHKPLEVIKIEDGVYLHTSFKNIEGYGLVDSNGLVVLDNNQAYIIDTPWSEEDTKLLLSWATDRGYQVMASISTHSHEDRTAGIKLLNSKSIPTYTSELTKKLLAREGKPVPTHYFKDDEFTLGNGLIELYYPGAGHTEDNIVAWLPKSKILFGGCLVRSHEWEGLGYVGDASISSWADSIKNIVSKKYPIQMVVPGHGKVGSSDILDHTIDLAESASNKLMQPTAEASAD
Method: as §1, §2

NDM-1 [1] = target: T1, NDM-1 (Klebsiella pneumoniae, UniProt C7C422); assay: MBL inhibition assay, purified NDM-1, imipenem hydrolysis at 300 nm; type: biochemical; conditions: for IC50 against purified NDM-1: imipenem reporter substrate, 10 nM enzyme, 2.5% DMSO, highest inhibitor concentration 800 μM, N.I. and P. not defined
T1 sequence (C7C422 29-270 limits assumed): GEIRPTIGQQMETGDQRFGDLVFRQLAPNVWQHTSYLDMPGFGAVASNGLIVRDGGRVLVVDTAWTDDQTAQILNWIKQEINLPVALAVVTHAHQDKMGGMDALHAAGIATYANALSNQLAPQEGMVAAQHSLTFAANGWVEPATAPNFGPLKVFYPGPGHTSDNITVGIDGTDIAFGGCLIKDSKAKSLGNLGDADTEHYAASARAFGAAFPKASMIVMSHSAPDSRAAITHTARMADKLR
Method: as §1, §2

in vitro = type: cell-based; conditions: human; cell viability after 24 hours incubation, at least two independent experiments; read-out: Cytotoxicity IC50 in HeLa cells
Method: The cytotoxicity of phosphonamidate monoesters was evaluated against HeLa cells (ATCC-CCL-2), which were maintained in Dulbecco’s modified Eagle medium (Thermo Fisher Scientific) supplemented with 10% (v/v) fetal bovine serum (Thermo Fisher Scientific), penicillin (100 units/mL), and streptomycin (100 μg/mL, both from Sigma) at 37 °C, 5% CO2. Cells were seeded in 96-well plates (Corning, Merck) at 20 × 10^3 cells/well and incubated for 24 h (37 °C, 5% CO2). Stock solutions of the compounds were prepared at 150 mM in DMSO (Sigma), and the cells were exposed to a serial dilution and incubated for 24 h. Subsequently, the cells were washed twice with culture medium, and the PrestoBlue reagent (Thermo Fischer Scientific) was directly added to the cells for cell viability determination (1:10 dilution in culture medium). Following recommended incubation times (manufacturer’s instructions), fluorescence was measured using a Spark plate reader (Tecan, Austria) at Ex/Em 560/590 nm and corrected for background fluorescence by including control wells containing only cell culture media (no cells). Data analysis was performed using GraphPad Prism 9.0.0 (GraphPad Software, USA). At least two independent experiments were performed.
Figure S1. Cytotoxicity dose-response curves of phosphonamidate monoesters as determined in HeLa cells. The cells were treated with the compounds at the indicated concentrations, and cell viability was measured after 24 hours incubation. The following IC50 values wer e determined to be (A) 69. 2 µM (SD = 1.0) for KAT -A-109-H2, (B) 201.4 µM (SD = 4.4) for KAT -A-102-H1 and (C) 90.7 µM (SD = 1.0) for KAT -A-118-H1. All remaining compounds (D - H) had IC50 values above 500 µM. Data is shown as mean ± SD of at least two independent experiments.
*A 1h, B 1e, C 1f, D 1a, E 1b, F 1d, G 1c. […]

[2] = Solubility in the MIC assay; type: physicochemical; conditions: Muller Hinton II broth
Method: (§3) The in vitro susceptibility of meropenem in combination with the different compounds was evaluated against E. coli expressing NDM-1 in a broth microdilution assay. A 96-well plate was prepared with the compounds in a twofold dilution series (final concentrations 1024–0.5 mg/L) in Muller Hinton II broth (MHB-II) in combination with 2, 4, or 8 mg/L meropenem. EDTA (100 μM) was used in combination with meropenem as control for inhibition of NDM-1. Three–five colonies of E. coli ATCC 25922 NDM-1 were suspended in 0.90% saline solution and adjusted to the 0.5 McFarland turbidity standard. The bacterial suspension was diluted in MHB-II and adjusted to a final inoculum of 5 × 10^5 CFU/mL.
Table S2. Susceptibility assay with E. coli ATCC 25922 NDM-1
Compound Minimum inhibitory concentration (mg/L)
Meropenem:compound ratio Meropenem

E. coli ATCC 25922 NDM-1 = type: cell-based; conditions: in combination with EDTA 100 μM (control for inhibition of NDM-1)
Method: as §3

NDM-1 [3] = target: T1, NDM-1; assay: 1H,15N HSQC chemical shift titration and 15N-filtered HSQC-NOESY with 15N-labeled NDM-1; type: binding
Method: As binding-induced protein NMR chemical shift changes reveal the alteration of the local environment in the vicinity of the monitored nuclei, these are commonly acquired for identification of binding clefts. We monitored the weighted chemical shift changes, Δδ1H,15N, of uniformly ^15N-enriched backbone amide functionalities upon successive additions of the 0–2.370 mM ligand using ^1H,^15N HSQC experiments (Figure 5). Following literature examples,[31] chemical shift perturbations (CSPs) were considered to be significant (SSPs) in case the observed Δδ1H,15N was greater than the population mean plus the standard deviation (μ + 1σ). […] Some minor chemical shift variations were observed upon the addition of the co-solvents, as expected,[34] whereas neither protein precipitation nor alteration of the overall structure of NDM-1 was detected (Figures S3 and S4, Supporting Information). The chemical shift changes of 234 backbone amides were monitored. […]
Additional information about the binding event was obtained from 3D-^15N-filtered HSQC-NOESY (Figure S6, Supporting Information). […] Thus, in a filtered NOE experiment, only intermolecular cross-peaks are detected. […]
For the titrations, two ^15N-labeled NDM-1 (0.25 mM) batches were prepared. […] All experiments were recorded on a Bruker 600 MHz spectrometer at 310 K equipped with a 5 mm TCI cryogenic probe. […]

[4] = Solubility / aggregation in NMR buffer; type: physicochemical; conditions: 20 mM K3PO4 aqueous buffer solution at pH 7; aggregation was observed
Method: As binding-induced protein NMR chemical shift changes reveal the alteration of the local environment in the vicinity of the monitored nuclei, these are commonly acquired for identification of binding clefts. We monitored the weighted chemical shift changes, Δδ1H,15N, of uniformly ^15N-enriched backbone amide functionalities upon successive additions of the 0–2.370 mM ligand using ^1H,^15N HSQC experiments (Figure 5). Following literature examples,[31] chemical shift perturbations (CSPs) were considered to be significant (SSPs) in case the observed Δδ1H,15N was greater than the population mean plus the standard deviation (μ + 1σ). Such chemical shift changes may directly originate from the interaction or might be indirect and thus be the result of binding-induced conformational changes. Based on its activity against NDM-1 (Table 1) and solubility, 1d was selected for detailed analysis (Figure S2, Supporting Information). […] In order to exclude aggregation of 1d, we also performed additional ^1H,^15N HSQC titration experiments using 5% DMSO or 5% ethanol (EtOH). Some minor chemical shift variations were observed upon the addition of the co-solvents, as expected,[34] whereas neither protein precipitation nor alteration of the overall structure of NDM-1 was detected (Figures S3 and S4, Supporting Information). The chemical shift changes of 234 backbone amides were monitored. […]

| SMILES | IC50 against purified GIM-1 (GIM-1) | IC50 against purified NDM-1 (NDM-1 [1]) | IC50 (in vitro) [µM] | IC50 against purified VIM-2 (VIM-2) | Solubility in MIC assay [2] | other results |
| --- | --- | --- | --- | --- | --- | --- |
| COC(=O)[C@H](NP(=O)(CCSC(C)=O)OC)c1ccccc1 (mixture of isomers) [1c, Methyl (R)-2-(((R/S)-(2-(Acetylthio)ethyl) (methoxy)phosphoryl)amino)-2-phenylacetate] | N.I. | N.I | > 500 |  |  | IC50 (VIM-2): 500 µM |
| CCO[P@](=O)([C@@H](CSC(C)=O)Cc1ccccc1)N(C)Cc1ccccn1 (racemic) [1f, S-((R/S)-2-((R/S)-Ethoxy(methyl(pyridin-2-ylmethyl)amino)phosphoryl)-3-phenylpropyl) Ethanethioate] | P. | P. | 90.7 | P. | could not be dissolved |  |
| O=C(O)CN(CCN(CC(=O)O)CC(=O)O)CC(=O)O [EDTA] |  |  |  |  |  | Minimum inhibitory concentration of meropenem (E. coli ATCC 25922 NDM-1): < 2 µg/mL |
| COP(=O)(CCS)NCc1ccccn1 (stereo not drawn) [compound 2] | N.I. | N.I. |  | N.I. |  |  |
| CCO[P@@](=O)(N[C@@H](C(=O)OC)c1ccccc1)[C@@H](CSC(C)=O)Cc1ccccc1 (mixture of isomers) [1g, Methyl (R)-2-(((R/S)-((R/S)-1-(Acetylthio)-3-phenylpropan-2-yl) (ethoxy)phosphoryl)amino)-2-phenylacetate] | P. | P. |  | P. | could not be dissolved |  |
| COP(=O)(CCSC(C)=O)N(C)Cc1ccccn1 (racemic) [1b, (R/S)-(2-(Methoxy(methyl(pyridin-2-ylmethyl)amino)phosphoryl)ethyl) Ethanethioate] |  |  |  |  |  | IC50 (GIM-1): 109 µM; IC50 (NDM-1 [1]): 356 µM; IC50 at 24 h (in vitro): > 500 µM |
| CCO[P@](=O)([C@@H](CSC(C)=O)Cc1ccccc1)N(Cc1ccccn1)Cc1ccccn1 (racemic) [1h, S-((R/S)-2-((R/S)-(Bis(pyridin-2-ylmethyl)amino)(ethoxy)phosphoryl)-3-phenylpropyl) Ethanethioate] | P. | P. | 69.2 | P. |  |  |
| COP(=O)(CCSC(C)=O)N(Cc1ccccn1)Cc1ccccn1 (racemic) [1d, (R/S)-(2-((Bis(pyridin-2-ylmethyl)amino) (methoxy)phosphoryl)ethyl) Ethanethioate] | N.I. |  | > 500 | N.I. |  | Enzymatic modification of the structure by NDM-1 during the NMR studies (NDM-1 [3]): no sign for enzymatic modification; Binding to NDM-1 by chemical shift perturbation (NDM-1 [3]; 0.25 mM 15N-labeled NDM-1, up to 1:10 protein/ligand, 310 K): specific binding; IC50 (NDM-1 [1]): 430 µM; Solubility [4]: limited solubility |
| COP(=O)(CCSC(C)=O)NCc1ccccn1 (racemic) [1a, (R/S)-(2-(Methoxy((pyridin-2-ylmethyl)amino)phosphoryl)ethyl) Ethanethioate] |  | N.I. |  | N.I. |  | IC50 (GIM-1): 86 µM; IC50 at 24 h (in vitro): > 500 µM |
| CCOP(=O)(NCc1ccccn1)C(CSC(C)=O)Cc1ccccc1 (racemic) [1e, S-((R/S)-2-((R/S)-(2-(Ethoxy((pyridine-2-ylmethyl)amino)phosphoryl)-3-phenylpropyl) Ethanethioate] |  | N.I. | 201 | N.I. | could not be dissolved |  |
